# Data taken from the NIST ThermoML archive (doi:10.1016/j.jct.2016.01.017).
# Numbers after ± are expanded uncertainties.
# Experiment: activity coefficient (dimensionless); of the first substance listed, at infinite dilution; xn = mol fraction of the nth substance listed
# Conditions: 100 kPa, Liquid, Chromatography, x1 = 0
Structure (SMILES),activity coefficient (308.15 K),activity coefficient (318.15 K),activity coefficient (328.15 K),activity coefficient (338.15 K),activity coefficient (348.15 K),activity coefficient (358.15 K),activity coefficient (368.15 K)
COC(C)=O [methyl ethanoate] + CCCC[n+]1ccc(C#N)cc1.O=S(=O)([N-]S(=O)(=O)C(F)(F)F)C(F)(F)F,0.607 ± 0.053,0.646 ± 0.056,0.685 ± 0.059,0.724 ± 0.061,0.762 ± 0.064,0.8 ± 0.067,0.839 ± 0.07
CCC(=O)OC [methyl propanoate] + CCCC[n+]1ccc(C#N)cc1.O=S(=O)([N-]S(=O)(=O)C(F)(F)F)C(F)(F)F,0.8 ± 0.067,0.855 ± 0.071,0.905 ± 0.075,0.956 ± 0.079,1.01 ± 0.08,1.06 ± 0.09,1.11 ± 0.09
C1CCCCCCC1 [cyclooctane] + CCCC[n+]1ccc(C#N)cc1.O=S(=O)([N-]S(=O)(=O)C(F)(F)F)C(F)(F)F,26.5 ± 2.3,25.2 ± 2.2,24.1 ± 2.1,23.2 ± 2,22.4 ± 1.9,21.6 ± 1.9,20.9 ± 1.8
CC(C)=O [acetone] + CCCC[n+]1ccc(C#N)cc1.O=S(=O)([N-]S(=O)(=O)C(F)(F)F)C(F)(F)F,0.377 ± 0.039,0.403 ± 0.04,0.427 ± 0.042,0.453 ± 0.043,0.479 ± 0.045,0.505 ± 0.046,0.531 ± 0.048
CCC(C)O (stereo unspecified) [butan-2-ol] + CCCC[n+]1ccc(C#N)cc1.O=S(=O)([N-]S(=O)(=O)C(F)(F)F)C(F)(F)F,2.69 ± 0.23,2.5 ± 0.2,2.33 ± 0.2,2.18 ± 0.19,2.06 ± 0.18,1.94 ± 0.17,1.84 ± 0.16
"CC(C)CC(C)(C)C [2,2,4-trimethylpentane] + CCCC[n+]1ccc(C#N)cc1.O=S(=O)([N-]S(=O)(=O)C(F)(F)F)C(F)(F)F",46.5 ± 4,42.9 ± 3.7,39.8 ± 3.4,37 ± 3.2,34.7 ± 3,32.5 ± 2.8,30.7 ± 2.7
CC(C)O [propan-2-ol] + CCCC[n+]1ccc(C#N)cc1.O=S(=O)([N-]S(=O)(=O)C(F)(F)F)C(F)(F)F,2.25 ± 0.19,2.08 ± 0.18,1.95 ± 0.17,1.83 ± 0.16,1.73 ± 0.15,1.63 ± 0.14,
O [water] + CCCC[n+]1ccc(C#N)cc1.O=S(=O)([N-]S(=O)(=O)C(F)(F)F)C(F)(F)F,3.31 ± 0.29,3.01 ± 0.26,2.74 ± 0.24,2.52 ± 0.22,2.33 ± 0.2,2.16 ± 0.19,2 ± 0.17
C=CCCCC [hex-1-ene] + CCCC[n+]1ccc(C#N)cc1.O=S(=O)([N-]S(=O)(=O)C(F)(F)F)C(F)(F)F,14.1 ± 1.2,13.8 ± 1.2,13.5 ± 1.2,13.2 ± 1.1,12.9 ± 1.1,12.7 ± 1.1,12.5 ± 1.1
CCC(C)CC [3-methylpentane] + CCCC[n+]1ccc(C#N)cc1.O=S(=O)([N-]S(=O)(=O)C(F)(F)F)C(F)(F)F,30.7 ± 2.7,28.4 ± 2.5,26.4 ± 2.3,24.7 ± 2.1,23.1 ± 2,21.7 ± 1.9,20.6 ± 1.8
C=CCCC [1-pentene] + CCCC[n+]1ccc(C#N)cc1.O=S(=O)([N-]S(=O)(=O)C(F)(F)F)C(F)(F)F,11.5 ± 1,10.9 ± 0.9,10.3 ± 0.9,9.83 ± 0.85,9.41 ± 0.81,9.02 ± 0.78,8.65 ± 0.75
CC1CCCCC1 [methylcyclohexane] + CCCC[n+]1ccc(C#N)cc1.O=S(=O)([N-]S(=O)(=O)C(F)(F)F)C(F)(F)F,23.4 ± 2,21.8 ± 1.9,20.4 ± 1.8,19.1 ± 1.7,18 ± 2,17.1 ± 1.5,16.2 ± 1.4
C1CCOC1 [tetrahydrofuran] + CCCC[n+]1ccc(C#N)cc1.O=S(=O)([N-]S(=O)(=O)C(F)(F)F)C(F)(F)F,0.622 ± 0.054,0.661 ± 0.057,0.701 ± 0.06,0.742 ± 0.063,0.779 ± 0.065,0.818 ± 0.068,0.858 ± 0.071
CC(C)OC(C)C [diisopropyl ether] + CCCC[n+]1ccc(C#N)cc1.O=S(=O)([N-]S(=O)(=O)C(F)(F)F)C(F)(F)F,9.7 ± 0.84,9.65 ± 0.83,9.59 ± 0.83,9.57 ± 0.83,9.53 ± 0.82,9.48 ± 0.82,9.45 ± 0.82
CCOC(C)=O [ethyl acetate] + CCCC[n+]1ccc(C#N)cc1.O=S(=O)([N-]S(=O)(=O)C(F)(F)F)C(F)(F)F,0.839 ± 0.07,0.89 ± 0.074,0.941 ± 0.077,0.995 ± 0.082,1.05 ± 0.09,1.1 ± 0.09,1.15 ± 0.1
CCC[N+](=O)[O-] [1-nitropropane] + CCCC[n+]1ccc(C#N)cc1.O=S(=O)([N-]S(=O)(=O)C(F)(F)F)C(F)(F)F,0.74 ± 0.063,0.768 ± 0.065,0.796 ± 0.067,0.824 ± 0.069,0.851 ± 0.071,0.877 ± 0.073,0.904 ± 0.075
"CCC(C)(C)C [2,2-dimethylbutane] + CCCC[n+]1ccc(C#N)cc1.O=S(=O)([N-]S(=O)(=O)C(F)(F)F)C(F)(F)F",34.9 ± 3,31.3 ± 2.7,28.2 ± 2.4,25.6 ± 2.2,23.4 ± 2,21.4 ± 1.9,19.7 ± 1.7
CCCC(=O)OC [methyl butanoate] + CCCC[n+]1ccc(C#N)cc1.O=S(=O)([N-]S(=O)(=O)C(F)(F)F)C(F)(F)F,1.15 ± 0.1,1.22 ± 0.1,1.28 ± 0.11,1.35 ± 0.11,1.42 ± 0.12,1.48 ± 0.13,1.55 ± 0.13
C#CCCC [1-pentyne] + CCCC[n+]1ccc(C#N)cc1.O=S(=O)([N-]S(=O)(=O)C(F)(F)F)C(F)(F)F,3.4 ± 0.29,3.48 ± 0.3,3.56 ± 0.31,3.64 ± 0.31,3.7 ± 0.3,3.77 ± 0.33,3.84 ± 0.33
C#CCCCCC [1-heptyne] + CCCC[n+]1ccc(C#N)cc1.O=S(=O)([N-]S(=O)(=O)C(F)(F)F)C(F)(F)F,6.92 ± 0.6,7.02 ± 0.61,7.11 ± 0.61,7.21 ± 0.62,7.3 ± 0.63,7.39 ± 0.64,7.48 ± 0.65
Cc1ccccc1 [toluene] + CCCC[n+]1ccc(C#N)cc1.O=S(=O)([N-]S(=O)(=O)C(F)(F)F)C(F)(F)F,1.46 ± 0.12,1.54 ± 0.13,1.62 ± 0.14,1.7 ± 0.14,1.78 ± 0.15,1.86 ± 0.16,1.94 ± 0.17
